Patent publication US20060217308A1, “Compositions for the treatment of tumor pathologies, comprising internalin B (ln1B) of Listeria monocytogene protein or a fragment thereof” (priority 2005, published 2006)

Legend:
[1] = target: Met (hepatocyte growth factor receptor), endogenous in human HeLa cells (human) (UniProt P08581); assay: cell-based or functional assay
[2] = system: Met; assay: Effect of proteasome and lysosome inhibitors on In1B-dependent degradation of Met; format: cell-based, human; details: HeLa cells pre-treated with inhibitor before addition of In1B; anti-Met immunoblot
Description: (A) Hela cells were treated (+) with […] epoximycin, […] clasto-lactacystin-β-lactone (lactone), 20 mM ammonium chloride, or 5 μM bafilomycin A1 (Baf-A1) for 90 minutes before addition of In1B. Cell extracts were loaded in a SDS-PAGE gel followed by immunoblot with anti-Met antibody. […] (B) Surface exposed proteins of Hela cells were biotinylated (Biot +) before addition of In1B. In1B was added for two minutes to allow internalization of Met, then cells were washed and biotin was removed (see methods and text) from the surface. Samples were precipitated with neutravidin agarose and blotted against Met.
Mono-ubiquitination is the signal that induces endocytosis of RTKs after ligand binding and usually drives cargo proteins to lysosomal degradation (6, 17, 34). To study whether In1B-dependent degradation of Met is a proteasomal or a lysosomal event, HeLa cells were treated with clasto-p-lactacystin lactone or epoximycin, two inhibitors of proteasome degradation, and ammonium chloride or bafilomycin A1, two inhibitors of lysosome degradation, […] before the addition of In1B. Cellular extracts were then immunoblotted using anti Met antibodies (FIG. 4).

[3] = system: poly-ubiquitinated proteins; assay: FK1 functionality test: poly-ubiquitin immunoblot of HeLa cells treated with proteasome inhibitors; format: cell-based, human; details: 60 minutes treatment, versus non-treated
Description: (A) In1B was added (+) to HeLa cells. Lysates were immunoprecipitated using C12 rabbit polyclonal anti-Met antibody and blotted against Met (DL21 mAb). The same membrane was stripped and blotted against ubiquitin using FK1, a mAb that recognizes poly-ubiquitinated proteins, or P4D1, a mAb that recognizes both poly- and mono-ubiquitinated proteins. (B) Total cell extracts from Hela cells treated with […] epoximycin (lane 2) or […] clasto-lactacystin-β-lactone (lane 3) for 60 minutes, or non-treated cells (lane 1) were blotted against poly-ubiquitin (FK1) or actin. (C) ubiquitin ladder was blotted with FK1 or P4D1. The number of ubiquitin modules is indicated on the right. The molecular weight of protein markers is shown in the left of the panels, in kDa. In D and E, Hela Cells were transfected with siRNA to knock down Cbl expression (RNAi), or with RNA control (Control). (D) Cellular Cbl and actin were detected by immunoblotting. […]
The rapid degradation of Met after In B contact is different from the HGF-dependent degradation, which has been reported to take two hours (19-21), indicating differences in the biochemistry of the process. […] Samples from HeLa cells treated with In1B (5 nM) were immunoprecipitated using an anti-Met antibody, and then Met-immunoprecipitates were analyzed with an anti Met mAb (FIG. 3A1), FK1 (FIG. 3A2) or P4D1 (FIG. 3A3). […]

[4] = system: Met; assay: Effect of cycloheximide on In1B-dependent degradation and de-novo synthesis of Met; format: cell-based, human; details: HeLa cells pre-treated 90 minutes before In1B
Description: FIG. 2 depicts the degradation and de-novo synthesis of Met. (A) HeLa cells were treated at the indicated times with 5 nM In1B and cellular extracts were blotted against Met. (B) Cells were treated as in A, but blotted at the same time with anti-Met antibody and Streptavidin. Stars indicate nonspecific bands recognized by streptavidin and the square indicates Met. (C) The experiment was performed as in A, but cells were pre-treated with […] of cycloheximide for 90 minutes before addition of In1B. (D) This experiment was performed as in A, but In1B was removed three minutes after it was added. Actin is shown as the loading control in A, C and D. The molecular mass of the markers is indicated in kDa.
In order to determine whether de-novo synthesis of Met occurred after In1B dependent-degradation, HeLa cells were pre-treated with cycloheximide, which inhibits protein synthesis, for 90 minutes before exposure to In1B.

[5] = target: Met (Homo sapiens, UniProt P08581); details: comparison with In1B; cited from earlier work
Sequence of Met (Homo sapiens, UniProt P08581) (P08581 25-1390): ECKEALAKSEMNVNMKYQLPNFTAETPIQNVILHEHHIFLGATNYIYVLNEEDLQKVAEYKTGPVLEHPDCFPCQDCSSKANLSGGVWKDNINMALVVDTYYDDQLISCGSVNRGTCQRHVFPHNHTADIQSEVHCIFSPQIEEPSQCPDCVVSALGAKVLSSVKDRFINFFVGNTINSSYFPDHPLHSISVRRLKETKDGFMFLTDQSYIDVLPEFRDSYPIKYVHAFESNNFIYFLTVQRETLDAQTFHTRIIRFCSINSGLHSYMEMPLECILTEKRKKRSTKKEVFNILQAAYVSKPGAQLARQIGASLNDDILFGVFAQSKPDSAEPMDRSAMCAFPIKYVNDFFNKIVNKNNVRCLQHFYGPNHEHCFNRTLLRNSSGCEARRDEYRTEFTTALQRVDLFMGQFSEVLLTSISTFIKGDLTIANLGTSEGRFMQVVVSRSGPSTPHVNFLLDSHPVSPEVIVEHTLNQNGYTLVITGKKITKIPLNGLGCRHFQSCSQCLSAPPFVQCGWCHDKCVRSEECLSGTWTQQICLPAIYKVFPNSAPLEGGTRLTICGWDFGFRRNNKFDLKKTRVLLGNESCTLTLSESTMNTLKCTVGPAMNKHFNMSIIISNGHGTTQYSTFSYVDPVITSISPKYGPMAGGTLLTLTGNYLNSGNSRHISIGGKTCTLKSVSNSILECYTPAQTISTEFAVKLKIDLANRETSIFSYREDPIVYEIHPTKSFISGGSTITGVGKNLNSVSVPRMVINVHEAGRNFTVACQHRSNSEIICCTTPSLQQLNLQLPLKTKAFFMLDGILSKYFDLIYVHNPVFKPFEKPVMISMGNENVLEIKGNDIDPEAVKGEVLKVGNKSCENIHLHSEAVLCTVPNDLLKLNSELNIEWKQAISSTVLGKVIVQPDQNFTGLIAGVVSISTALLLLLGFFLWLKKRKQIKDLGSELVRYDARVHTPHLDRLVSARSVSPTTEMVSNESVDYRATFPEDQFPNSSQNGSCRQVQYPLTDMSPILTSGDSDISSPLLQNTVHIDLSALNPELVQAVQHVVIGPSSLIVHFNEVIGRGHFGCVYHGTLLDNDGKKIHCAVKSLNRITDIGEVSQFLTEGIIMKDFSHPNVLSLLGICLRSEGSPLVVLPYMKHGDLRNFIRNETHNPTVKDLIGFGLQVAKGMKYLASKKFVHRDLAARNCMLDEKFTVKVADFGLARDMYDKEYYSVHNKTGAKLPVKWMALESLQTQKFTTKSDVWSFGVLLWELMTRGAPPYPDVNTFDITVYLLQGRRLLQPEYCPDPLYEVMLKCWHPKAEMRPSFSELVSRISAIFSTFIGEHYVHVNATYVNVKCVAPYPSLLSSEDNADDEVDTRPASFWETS

Sequence of Met (hepatocyte growth factor receptor), endogenous in human HeLa cells (human) (P08581 25-1390): as above

Compound: In1B (internalin B) of Listeria monocytogenes, purified soluble protein (ligand)
- Met phosphorylation (blot against phospho-tyrosine) [1]: 2 min
- kinetics of In1B-dependent ubiquitination of Met [1]: 2 min
- minimal amount of In1B necessary to trigger Met ubiquitination [1]: 1.75 nM

Compound: CC(C)[C@H](O)[C@@]12NC(=O)[C@H](C)[C@@H]1OC2=O [clasto-lactacystin-β-lactone]
- effect of inhibitor on In1B-dependent degradation of Met [2]: did not inhibit
- poly-ubiquitin (FK1) signal in cells treated with proteasome inhibitor [3]: stronger signals

Compound: C[C@@H]1C[C@@H]([C@H](O)CC2CC(=O)NC(=O)C2)C(=O)[C@@H](C)C1 [cycloheximide]
- effect of cycloheximide on In1B-dependent degradation of Met [4]: did not prevent
- effect of cycloheximide on de-novo synthesis of Met after In1B [4]: strongly hampered

Compound: CC[C@H](C)[C@H](NC(=O)[C@H]([C@@H](C)CC)N(C)C(C)=O)C(=O)N[C@H](C(=O)N[C@@H](CC(C)C)C(=O)[C@@]1(C)CO1)[C@@H](C)O [epoximycin]
- effect of inhibitor on In1B-dependent degradation of Met [2]: did not inhibit
- poly-ubiquitin (FK1) signal in cells treated with proteasome inhibitor [3]: stronger signals

Compound: CO/C1=C\C(C)=C\[C@@H](C)[C@@H](O)[C@@H](C)C/C(C)=C/C=C/[C@H](OC)[C@@H]([C@@H](C)[C@@H](O)[C@H](C)[C@@]2(O)C[C@@H](O)[C@H](C)[C@@H](C(C)C)O2)OC1=O [bafilomycin A1]
- effect of inhibitor on In1B-dependent degradation of Met [2]: significantly protected Met from degradation

Compound: Cl.N [ammonium chloride]
- effect of inhibitor on In1B-dependent degradation of Met [2]: significantly protected Met from degradation

Compound: HGF: Met ligand (hepatocyte growth factor)
- time needed for a similar rate of Met degradation after activation with HGF [5]: two to five and two
